Laboratory results as given in US20120077957A1, “Lactam-Bridged Melanocortin Receptor-Specific Peptides” (PALATIN TECHNOLOGIES, INC., priority 2009, published 2012).
Where two headings read alike, the source gives them in different places. Bridge positions count the residues as written; N and C are the ends. Square brackets hold non-standard residues; d marks the D form. Peptide text beside a SMILES is read from it.

Columns and labels:
[1] = biological target: T1, human MC4-R (Homo sapiens, UniProt P32245); experiment: Competitive inhibition binding assay with [I125]-NDP-α-MSH or Eu-NDP-α-MSH, membranes of HEK-293 cells expressing recombinant hMC4-R
T1 construct: expressed in transfected cells; host or cells: HEK293 T-REx (tetracycline-regulated, Invitrogen); cell line from Palatin Technologies with license from the University of Michigan
T1 sequence (P32245 whole entry): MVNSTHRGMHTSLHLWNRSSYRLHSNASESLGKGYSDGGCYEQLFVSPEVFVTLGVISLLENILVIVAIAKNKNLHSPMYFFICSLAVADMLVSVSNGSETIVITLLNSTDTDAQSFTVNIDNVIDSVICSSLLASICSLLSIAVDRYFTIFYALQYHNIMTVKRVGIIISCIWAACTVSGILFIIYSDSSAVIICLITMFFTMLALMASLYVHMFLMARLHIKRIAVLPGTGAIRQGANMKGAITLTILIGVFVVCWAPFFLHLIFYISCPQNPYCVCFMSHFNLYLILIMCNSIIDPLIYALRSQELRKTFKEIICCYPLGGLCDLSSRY
Procedure: A competitive inhibition binding assay was performed using membrane homogenates prepared from HEK-293 cells that express recombinant hMC4-R, hMC3-R, or hMC5-R, and from B-16 mouse melanoma cells (containing endogenous MC1-R). In some instances, HEK-293 cells that express recombinant hMC1-R were employed. In the examples that follow, all MC3-R, MC4-R and MC5-R values are for human recombinant receptors. […] After incubation for 60 minutes at 37° C., the assay mixture was filtered and the membranes washed three times with ice-cold buffer. Filters were dried and counted in a gamma counter for bound radioactivity. […] Maximal specific binding (100%) was defined as the difference in radioactivity (cpm) bound to cell membranes in the absence and presence of 1 μM NDP-α-MSH. […] Ki values for test peptides of the present invention were determined using Graph-Pad Prism® curve-fitting software.
Alternatively, a competitive inhibition binding assay was performed employing Eu-NDP-α-MSH (PerkinElmer Life Sciences catalog No. AD0225) with determination by time-resolved fluorometry (TRF) of the lanthanide chelate. […] After incubation for 90 minutes at 37° C., the reaction was stopped by filtration over AcroWell 96-well filter plates (Pall Life Sciences). The filter plates were washed 4 times with 200 μL of ice-cold phosphate-buffered saline. DELFIA Enhancement solution (PerkinElmer Life Sciences) was added to each well. […] Each assay was conducted in duplicate and mean values were utilized. Ki values were determined by curve-fitting with Graph-Pad Prism® software using a one-site fixed-slope competition binding model.

[2] = biological target: T1, human MC4-R; experiment: cAMP functional assay in HEK-293 T-REx cells expressing human MC4-R, induced with doxycycline 0.1 ng/mL (low density); type: cell-based; settings: doxycycline 0.1 ng/mL, averages of all comparable assays; for EC50: human MC4-R cAMP assay, read-out: Ec50; for Emax: HEK293-T-REx, maximal cAMP stimulation, NDP-α-MSH = 100%, read-out: Emax
[3] = human MC4-R, averages of all comparable assays, read-out: Ki

Row | Structure (SMILES) | Ki [1, 3] [nM] | EC50 [2] [nM] | Ki [1] [nM] | Emax [2] [%]
1 | CC(=O)N[C@@H](CCCNC(=N)N)C(=O)N[C@H]1CCCNC(=O)CC[C@@H](C(N)=O)NC(=O)[C@H](Cc2c[nH]c3ccccc23)NC(=O)[C@H](CCCNC(=N)N)NC(=O)[C@@H](Cc2ccccc2)NC(=O)[C@H](CCN)NC1=O [No. 43, Ac-Arg-cyclo(Orn-Dab-D-Phe-Arg-Trp-Glu)-NH2] | – | 0.1 | 3 | 103
2 | CC(=O)N[C@@H](CCCNC(=N)N)C(=O)N[C@H]1CC(=O)NCCCC[C@@H](C(N)=O)NC(=O)[C@H](Cc2c[nH]c3ccccc23)NC(=O)[C@H](CCCNC(=N)N)NC(=O)[C@@H](Cc2ccccc2)NC(=O)[C@H](CCCN)NC1=O [reference compound] | 7 | – | – | 79
3 | CC(=O)N[C@@H](CCCNC(=N)N)C(=O)N[C@H]1CC(=O)NCCCC[C@@H](C(N)=O)NC(=O)[C@H](Cc2c[nH]c3ccccc23)NC(=O)[C@H](CCCNC(=N)N)NC(=O)[C@@H](Cc2ccccc2)NC(=O)[C@H](C)NC1=O [reference compound] (Ac-RDA[dF]RWK-NH2; lactam 2-7) | 19 | 37 | – | 74
4 | CC(=O)N[C@@H](CCCCN)C(=O)N[C@H]1CC(=O)NCCCC[C@@H](C(N)=O)NC(=O)[C@H](Cc2c[nH]c3ccccc23)NC(=O)[C@H](CCCNC(=N)N)NC(=O)[C@@H](Cc2ccccc2)NC(=O)[C@H](Cc2c[nH]cn2)NC1=O [reference compound] (Ac-KDH[dF]RWK-NH2; lactam 2-7) | 9 | 5 | – | 85
5 | CC(=O)NCC[C@@H]1NC(=O)[C@@H](NC(=O)[C@H](CCCNC(=N)N)NC(C)=O)CC(=O)NCCCC[C@@H](C(N)=O)NC(=O)[C@H](Cc2c[nH]c3ccccc23)NC(=O)[C@H](CCCNC(=N)N)NC(=O)[C@@H](Cc2ccccc2)NC1=O [reference compound] | – | – | 33 | 69
6 | CC(=O)N[C@@H](CCCNC(=N)N)C(=O)N[C@H]1CC(=O)NCCCC[C@@H](C(=O)O)NC(=O)[C@H](Cc2c[nH]c3ccccc23)NC(=O)[C@H](CCCNC(=N)N)NC(=O)[C@@H](Cc2ccccc2)NC(=O)[C@H](CCCN)NC1=O [reference compound] | 18 | 12 | – | 84

Other lines, results leading:

Row | Ki [1, 3] [nM] | EC50 [2] [nM] | Ki [1] [nM] | Emax [2] [%] | Structure (SMILES)
7 | 6 | 0.4 | – | – | CC(=O)N[C@@H](CCCNC(=N)N)C(=O)N[C@H]1CCC(=O)NCCC[C@@H](C(N)=O)NC(=O)[C@H](Cc2c[nH]c3ccccc23)NC(=O)[C@H](CCCNC(=N)N)NC(=O)[C@@H](Cc2ccccc2)NC(=O)[C@H](CC(N)=O)NC1=O [No. 34, Ac-Arg-cyclo(Glu-Asn-D-Phe-Arg-Trp-Orn)-NH2]
8 | 4 | 0.3 | – | 94 | CC(=O)N[C@@H](CCCNC(=N)N)C(=O)N[C@H]1CCC(=O)NCCC[C@@H](C(N)=O)NC(=O)[C@H](Cc2c[nH]c3ccccc23)NC(=O)[C@H](CCCNC(=N)N)NC(=O)[C@@H](Cc2ccccc2)NC(=O)[C@H](CCN)NC1=O [No. 6, Ac-Arg-cyclo(Glu-Dab-D-Phe-Arg-Trp-Orn)-NH2]
9 | 0.1 | 0.1 | – | 93 | CCCC[C@H](NC(C)=O)C(=O)N[C@H]1CCC(=O)NCCC[C@@H](C(N)=O)NC(=O)[C@H](Cc2c[nH]c3ccccc23)NC(=O)[C@H](CCCNC(=N)N)NC(=O)[C@@H](Cc2ccccc2)NC(=O)[C@H](Cc2c[nH]cn2)NC1=O [No. 2, Ac-Nle-cyclo(Glu-His-D-Phe-Arg-Trp-Orn)-NH2]
10 | 6 | 8 | – | 55 | CC(=O)N[C@@H](CCCNC(=N)N)C(=O)N[C@H]1CCC(=O)NCCC[C@@H](C(N)=O)NC(=O)[C@H](Cc2c[nH]c3ccccc23)NC(=O)[C@H](CCCNC(=N)N)NC(=O)[C@@H](Cc2ccccc2)NC(=O)[C@@H]2C[C@@H](N)CN2C1=O [No. 32, Ac-Arg-cyclo(Glu-Pro(4R-NH2)-D-Phe-Arg-Trp-Orn)-NH2]
11 | 1 | 2 | – | 97 | CCCC[C@H](NC(C)=O)C(=O)N[C@H]1CCCNC(=O)CC[C@@H](C(=O)O)NC(=O)[C@H](Cc2c[nH]c3ccccc23)NC(=O)[C@H](CCCNC(=N)N)NC(=O)[C@@H](Cc2ccccc2)NC(=O)[C@H](Cc2c[nH]cn2)NC1=O [No. 35, Ac-Nle-cyclo(Orn-His-D-Phe-Arg-Trp-Glu)-OH]
